“And” between values parts separate entries of the source, which are not always exact repeats. Equal entries are not always repeated.
Tests used:
naked mouse oocytes [1] = assay: Test of meiosis-inhibiting substances in the oocyte test (co-culture with FF-MAS in Hx-medium); format: cell-based; conditions: for Oocytes [n] GV: number of oocytes with germinal vesicle; for Oocytes [n] GVB: number of oocytes with germinal vesicle breakdown; for Oocytes [n] PB: number of oocytes with polar bodies
Description: Oocytes were obtained from immature female mice (C57BI/6J × DBA/2J F1-hybrids, Bomholtgaard, Denmark) weighing 13 - 16 grams, that were kept under controlled lighting and temperature. The mice received an intra-peritoneal injection of 0.2 ml gonadotropins (Gonal F, Serono, Solna, Sweden , containing 20 IU FSH, alternatively, Puregon, Organon, Swords, Ireland containing 20 IU FSH) and 48 hours later the animals were killed by cervical dislocation. The ovaries were dissected out and the oocytes were isolated in Hx-medium (see below) under a stereo microscope by manual rupture of the follicles using a pair of 27 gauge needles. Spherical, naked oocytes (NO) displaying an intact germinal vesicle (GV) were placed in α-minimum essential medium (α-MEM without ribonucleosides, Gibco BRL, Cat.No. 22561) supplemented with 3 mM hypoxanthine (Sigma Cat. No. H-9377), 8 mg/ml Human Serum Albumin (HSA, State Serum Institute, Denmark), 0,23 mM pyrubate (Sigma, Cat. No. S-8636), 2 mM glutamine (Flow Cat. No. 16-801), 100 IU/ml penicillin and 100 µg/ml streptomycin (Flow, Cat No. 16-700). This medium was designated Hx-medium. The oocytes were rinsed three times in Hx-medium and cultured in 4-well multidishes (Nuncion, Denmark) in which each well contained 0.4 ml of Hx-medium and 30 - 40 oocytes. One control (i.e. 30 - 40 oocytes cultured in Hx-medium with no addition of test compound) was always run simultaneously with the test cultures, which were made with different concentrations of the compounds to be tested. The cultures were performed at 37 °C and 100 % humidity with 5 % CO2 in air. The culture time was 22 - 24 hours. Germinal vesicle (GV) oocytes were obtained from immature FSH treated female mice using the same methods as described in Example 1 (see above). Naked oocytes (NO) were rinsed three times in Hx-medium. […] NO were cultured in Hx-medium supplemented with 5 µM FF-MAS in co-culture with the test compounds in different concentrations in 4-well multidishes (Nunclon, Denmark) in which each well contained 0.4 ml of Hx-medium and 30 - 40 oocytes. One positive control (i.e., 30 - 40 oocytes cultured in Hx-medium containing FF-MAS with no addition of test compound) was always run simultaneously with the test cultures, which were supplemented with different concentrations of the compounds to be tested. In addition, one negative control ( 30 - 40 oocytes cultured in Hx-medium alone) was run simultaneously with the positive control. By the end of the culture period, the number of oocytes with germinal vesicle (GV) or germinal vesicle breakdown (GVB) and those with polar body (PB) was counted using a stereo microscope or an inverted microscope with differential interference contrast equipment. The percentage of oocytes with GVB + PB per total number of oocytes were calculated in the test cultures and in the control (positive and negative) culture groups. The relative inhibition of the test compound was calculated by the following formula: inhibition test compound (%) = 100% - [(GVB+PB (test compound) - GVB+PB (negative control)) x 100 / GVB+PB(positive control) - GVB+PB (negative control)] % [formula] Oocytes arrested in meiosis are characterised by an intact nucleus with a prominent nucleolus, known as germinal vesicle (GV). Upon reinitiation of meiosis the nucleolus and the nuclear envelope disappear and this is characterised by a breakdown of the GV, which than is called germinal vesicle breakdown (GVB). Some hours later the oocyte complete a reductional division and elicit the first so called polar body (PB).

naked mouse oocytes [2] = assay: Testing of meiosis-activating substances in the oocyte test (Hx-medium); format: cell-based; conditions: 10 µM in Hx-medium
Description: Oocytes were obtained from immature female mice (C57BI/6J × DBA/2J F1-hybrids, Bomholtgaard, Denmark) weighing 13 - 16 grams, that were kept under controlled lighting and temperature. The mice received an intra-peritoneal injection of 0.2 ml gonadotropins (Gonal F, Serono, Solna, Sweden , containing 20 IU FSH, alternatively, Puregon, Organon, Swords, Ireland containing 20 IU FSH) and 48 hours later the animals were killed by cervical dislocation.
The ovaries were dissected out and the oocytes were isolated in Hx-medium (see below) under a stereo microscope by manual rupture of the follicles using a pair of 27 gauge needles. Spherical, naked oocytes (NO) displaying an intact germinal vesicle (GV) were placed in α-minimum essential medium (α-MEM without ribonucleosides, Gibco BRL, Cat.No. 22561) supplemented with 3 mM hypoxanthine (Sigma Cat. No. H-9377), 8 mg/ml Human Serum Albumin (HSA, State Serum Institute, Denmark), 0,23 mM pyrubate (Sigma, Cat. No. S-8636), 2 mM glutamine (Flow Cat. No. 16-801), 100 IU/ml penicillin and 100 µg/ml streptomycin (Flow, Cat No. 16-700). This medium was designated Hx-medium. The oocytes were rinsed three times in Hx-medium and cultured in 4-well multidishes (Nuncion, Denmark) in which each well contained 0.4 ml of Hx-medium and 30 - 40 oocytes. One control (i.e. 30 - 40 oocytes cultured in Hx-medium with no addition of test compound) was always run simultaneously with the test cultures, which were made with different concentrations of the compounds to be tested. The cultures were performed at 37 °C and 100 % humidity with 5 % CO2 in air. The culture time was 22 - 24 hours.
By the end of the culture period, the number of oocytes with germinal vesicle (GV) or germinal vesicle breakdown (GVB) and those with polar body (PB) was counted using a stereo microscope or an inverted microscope with differential interference contrast equipment. The percentage of oocytes with GVB per total number of oocytes and the percentage of oocytes with PB per total number of oocytes was calculated in the test cultures and compared to the control culture.
Oocytes arrested in meiosis are characterised by an intact nucleus with a prominent nucleolus, known as germinal vesicle (GV). Upon reinitiation of meiosis the nucleolus and the nuclear envelope disappear and this is characterised by a breakdown of the GV, which than is called germinal vesicle breakdown (GVB). Some hours later the oocyte complete a reductional division and elicit the first so called polar body (PB).

[3] = 5µM FF-MAS + 10 µM test compound in Hx-medium
[4] = 5µM FF-MAS + 10 µM test compound in Hx-medium, relative inhibition of meiosis
[5] = 5µM FF-MAS alone in Hx-medium (positive control)

| Structure (SMILES) | Oocytes [n] GV (naked mouse oocytes [1]; [3]) [n] | Oocytes [n] GVB (naked mouse oocytes [1]; [3]) [n] | Oocytes [n] PB (naked mouse oocytes [1]; [3]) [n] | Inhibition [%] (naked mouse oocytes [1]; [4]) | Oocytes [n] GV (naked mouse oocytes [1]; [5]) | Oocytes [n] GVB (naked mouse oocytes [1]; [5]) | inhibition at 5 µM (naked mouse oocytes [1]; Mus musculus, Oocyte, 5µM FF-MAS alone in Hx-medium (positive control), relative inhibition of meiosis) [%] | Oocytes [n] GV (naked mouse oocytes [2]) [n] | Oocytes [n] GVB (naked mouse oocytes [2]) [n] | Oocytes [n] PB (naked mouse oocytes [2]) [n] | activation at 10 µM (naked mouse oocytes [2]; Mus musculus, Oocyte, read-out: Activation [%] GVB+PB) [%] |
| --- | --- | --- | --- | --- | --- | --- | --- | --- | --- | --- | --- |
| CC(C)CCC[C@@H](C)[C@H]1CC[C@H]2C3=C(CC[C@]12C)[C@@]1(C)CC[C@@]2(OCCO)C[C@]1(CC3)[C@H](C)O2 [Example 5, 2-[(4aα-methyl-4a-homo-3α,5-methano-4-oxa-5α-cholest-8-en-3β-yl)oxy]ethanol] | 30 | 0 | 0 | 100 |  |  |  |  |  |  |  |
| CC(C)=CCO[C@H]1CC[C@H]2[C@@H]3CC[C@]45C[C@H](CC[C@]4(C)[C@H]3CC[C@]12C)OC5=O [Example 12, 17β-(prenyloxy)-5β-androstane-5,3β-carbolactone] | 24 | 9 | 1 | 84 |  |  |  |  |  |  |  |
| CC(C)=CCC[C@@H](C)[C@H]1CC=C2C3=C(CC[C@@]21C)[C@@]1(C)CC[C@H](O)C(C)(C)[C@@H]1CC3 [FF-MAS, 4,4-Dimethylcholest-B, 14,24-trien-3β-ol] |  |  |  |  | 4 n and 8 n | 16 n and 25 n | 0 | 6 | 31 | 2 | 85 |

Source: patent EP1127890A1, “Steroid derivatives with an additional ring annulated to ring A and use of these derivatives for the preparation of meiosis regulating medicaments” (SCHERING AKTIENGESELLSCHAFT, priority 2000, dated 2001)
